The text below walks through data of patent publication US20230331815A1 (priority 2020, published 2023).

For one test, the system named is SARS-CoV-2. The following applies: cited from earlier work.
For the next test, the system named is HSPG receptor. Put plainly: hLF cell membrane localization, confocal microscopy of VeroE6/T cells. The class given is cell-based, African green monkey. The following applies: co-incubation of hLF and heparin. How it is done:
To visualize cell membrane localization of human lactoferrin (hLF), VeroE6/T cells (0.75×10^5 cells/well) were chilled at 4° C. for 1 hr, incubated with 2.5 µM of hLF. Cells were washed, fixed using 4% PFA (Invitrogen), stained with anti-hLF antibody, and fluorescent image was taken under confocal microscope (FIG. 10, middle row). Cell nuclei were visualized using DAPI (FIG. 10, bottom row). To visualize the cell surface and nuclei at the same time, the confocal images above (i.e., FIG. 10, middle and bottom rows) were merged and are presented in FIG. 10, top row. […] To see the effect of heparin on the binding of hLF to the cell surface (specifically the HSPG receptor), cells were co-incubated with hLF and heparin (H), and the confocal image was taken (FIG. 10, right column).

Consider Ivermectin, for which, in the test with SARS-CoV-2, the 50% inhibitory concentration (IC50) was 2.2 to 2.8 µM. Regarding heparin [reference compound], in the test with HSPG receptor, the “effect on binding of hLF to the cell surface HSPG receptor” value is recorded as “inhibited”.

Broadly, the IC50 is the concentration needed to halve the response being measured.
